pKd: −log10 of the molar value.
Assay: Inhibition of Escherichia coli FimH by competitive binding assay

| Compound | pKd |
| --- | --- |
| CNC(=O)c1cccc(-c2ccc(O[C@H]3O[C@H](CO)[C@@H](O)[C@H](C(O)[C@H]4O[C@H](CO)[C@@H](O)[C@H](O)[C@@H]4O)[C@@H]3O)cc2)c1 (stereo partly drawn) | 7.54 |
| O=C1NCC(c2ccc(O[C@H]3O[C@H](CO)[C@@H](O)[C@H](C[C@H]4O[C@H](CO)[C@@H](O)[C@H](O)[C@@H]4O)[C@@H]3O)cc2)=C(O)N1 | 6.95 |
| CNC(=O)c1ccc(-c2ccc(C)c(O[C@H]3O[C@H](CO)[C@@H](O)[C@H](C[C@H]4O[C@H](CO)[C@@H](O)[C@H](O)[C@@H]4O)[C@@H]3O)c2)cc1 | 7.72 |
